The record followed here is patent US20020137929A1, “1 - (3-heterocyclylphenyl) isothiourea, -isourea, -guanidine and -amidine herbicidal agents” (Intellectual Property Department, BASF Aktiengesellschaft, priority 1998, published 2002).

One experiment concerns ECHCG (Barnyardgrass). As to the kind of experiment: Preemergence herbicidal evaluation. Conditions: rated 4-5 weeks after treatment. The experiment is classed as in vivo, Echinochloa crus-galli. In short, it runs like this:
(§1)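 Sown cups got a single aqueous acetone spray of test compound (roughly 0.0156–0.500 kg/ha) before seedlings emerged. Evaluation, 4–5 weeks on, used a 0–9 visual scale covering plant stand, vigor, size, malformation, chlorosis and general appearance compared with controls.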

Experiment [1] deals with CHEAL (Lambsquarters, Common). As to the kind of experiment: Postemergence herbicidal evaluation. It counts as in vivo, Chenopodium album. Conditions: postemergence. In a few lines: (§2)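 First, seedlings were raised for around two weeks. Next, test material in 50/50 acetone/water containing 0.5% TWEEN 20 was sprayed through a nozzle at 40 psi, equivalent to about 0.0156–0.500 kg/ha. Finally, after 4–5 weeks in the greenhouse, plants were rated 0–9.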

Another experiment has as its system GALAP (Galium). As to the kind of experiment: Preemergence herbicidal evaluation. It counts as in vivo, Galium aparine. Conditions: rated 4-5 weeks after treatment. In a few lines:
as §1

Experiment [2] concerns GLXMAW (Soybean, Williams). The experiment can be described thus: Preemergence herbicidal evaluation. It counts as in vivo, Glycine max, (L.) Merr. cv Williams. Conditions: rated 4-5 weeks after treatment. In a few lines:
as §1

In experiment [3] the test system is IPOHE (Morningglory, Ivyleaf). The experiment can be described thus: Postemergence herbicidal evaluation. The experiment is classed as in vivo, Ipomoea hederacea. Conditions: postemergence. In a few lines: as §2
The mark [4] stands for this setting: rate 0.0156 kg/ha, rating scale 0-9.
[5] abbreviates: rate 0.0313 kg/ha, rating scale 0-9.
Where [6] appears, read: rate 0.0625 kg/ha, rating scale 0-9.
[7] abbreviates: rate 0.1250 kg/ha, rating scale 0-9.
[8] abbreviates: rate 0.2500 kg/ha, rating scale 0-9.

With `CCOC(=O)[C@H](Cc1ccccc1)N1C(=O)CSC1=Nc1cc(-n2c(=O)cc(C(F)(F)F)n(C)c2=O)c(F)cc1Cl` [Compound 80, Ethyl α-benzyl-2-{{2-chloro-5-[3,6-dihydro-3-methyl-2,6-dioxo-4-(trifluoromethyl)-1(2H)-pyrimidinyl]-4-fluorophenyl}imino}-4-oxo-3-thiazolidineacetate, L-], the “Preemergence herbicidal rating ECHCG” value in the experiment with ECHCG (Barnyardgrass) (rate 0.0156 kg/ha) turned out to be 0.0; with ECHCG (Barnyardgrass) (rate 0.0313 kg/ha), 0.0; in the experiment with ECHCG (Barnyardgrass) (rate 0.0625 kg/ha) it was 0.0; with ECHCG (Barnyardgrass) (rate 0.1250 kg/ha), 1.0; in the experiment with ECHCG (Barnyardgrass) (rate 0.2500 kg/ha), 0.0. The CHEAL herbicidal rating in experiment [1] (rate 0.0158 kg/ha), in experiment [1] (rate 0.0315 kg/ha) and in experiment [1] (rate 0.0630 kg/ha) was 9.0 in each case. Further, the “Preemergence herbicidal rating GALAP” value with GALAP (Galium) (rate 0.0156 kg/ha) came to 0.0; in the experiment on GALAP (Galium) (rate 0.0313 kg/ha), 0.0; with GALAP (Galium) (rate 0.0625 kg/ha) it was 0.0; in the experiment with GALAP (Galium) (rate 0.1250 kg/ha) it was 4.0; with GALAP (Galium) (rate 0.2500 kg/ha), 4.0. Further, the “Preemergence herbicidal rating GLXMAW” value worked out at 0.0 in experiment [2] (rate 0.0156 kg/ha); 0.0 in experiment [2] (rate 0.0313 kg/ha); 1.0 in experiment [2] (rate 0.0625 kg/ha); 1.0 in experiment [2] (rate 0.1250 kg/ha); 1.0 in experiment [2] (rate 0.2500 kg/ha). Also, the IPOHE herbicidal rating in experiment [3] (rate 0.0158 kg/ha), in experiment [3] (rate 0.0315 kg/ha) and in experiment [3] (rate 0.0630 kg/ha) was 9.0 each time.

With `Cn1c(C(F)(F)F)cc(=O)n(-c2cc(N=C3SCC(=O)N3CC(=O)OCC3CCCCC3)c(Cl)cc2F)c1=O` [Compound 123, Cyclohexylmethyl 2-{{2-chloro-5-[3,6-dihydro-3-methyl-2,6-dioxo-4-(trifluoromethyl)-1(2H)-pyrimidinyl]-4-fluorophenyl}imino}-4-oxo-3-thiazolidineacetate], the “Preemergence herbicidal rating ECHCG” value is reported as 0.0 in the experiment with ECHCG (Barnyardgrass) (rate 0.0156 kg/ha); 0.0 in the experiment on ECHCG (Barnyardgrass) (rate 0.0313 kg/ha); 0.0 with ECHCG (Barnyardgrass) (rate 0.0625 kg/ha); 1.0 in the experiment with ECHCG (Barnyardgrass) (rate 0.1250 kg/ha); 4.0 with ECHCG (Barnyardgrass) (rate 0.2500 kg/ha); 7.0 in the experiment with ECHCG (Barnyardgrass) (rate 0.5000 kg/ha). The “Herbicidal rating CHEAL” value in experiment [1] (rate 0.0156 kg/ha), in experiment [1] (rate 0.0313 kg/ha), in experiment [1] (rate 0.0625 kg/ha) and in experiment [1] (rate 0.1250 kg/ha) was 9.0 throughout. Besides, the “Preemergence herbicidal rating GALAP” value in the experiment with GALAP (Galium) (rate 0.0156 kg/ha) was determined as 2.0; in the experiment on GALAP (Galium) (rate 0.0313 kg/ha), 3.0; in the experiment on GALAP (Galium) (rate 0.0625 kg/ha), 3.0; with GALAP (Galium) (rate 0.1250 kg/ha), 7.0; in the experiment with GALAP (Galium) (rate 0.2500 kg/ha), 6.0; with GALAP (Galium) (rate 0.5000 kg/ha), 9.0. The “Preemergence herbicidal rating GLXMAW” value in experiment [2] (rate 0.0156 kg/ha) was 0.0; in experiment [2] (rate 0.0313 kg/ha), 0.0; in experiment [2] (rate 0.0625 kg/ha), 1.0; in experiment [2] (rate 0.1250 kg/ha) it was 4.0; in experiment [2] (rate 0.2500 kg/ha) it was 9.0; in experiment [2] (rate 0.5000 kg/ha) it was 6.0. The “Herbicidal rating IPOHE” value in experiment [3] (rate 0.0156 kg/ha), in experiment [3] (rate 0.0313 kg/ha), in experiment [3] (rate 0.0625 kg/ha) and in experiment [3] (rate 0.1250 kg/ha) was 9.0 throughout.

In the case of `Cn1c(C(F)(F)F)cc(=O)n(-c2cc(N=C3SCC(=O)N3Cc3cccc(Cl)c3)c(Cl)cc2F)c1=O` [Compound 136, 3-{4-Chloro-5-{[3-(m-chlorobenzyl)-4-oxo-2-thiazolidinylidene]amino}-2-fluorophenyl}-1-methyl-6-(trifluoromethyl)-2,4(1H,3H)-pyrimidinedione], the “Preemergence herbicidal rating ECHCG” value in the experiment on ECHCG (Barnyardgrass) (setting [4]), in the experiment with ECHCG (Barnyardgrass) (setting [5]), in the experiment on ECHCG (Barnyardgrass) (setting [6]), with ECHCG (Barnyardgrass) (setting [7]) and in the experiment on ECHCG (Barnyardgrass) (setting [8]) was 0.0 in each case. The “Herbicidal rating CHEAL” value in experiment [1] (rate 0.0156 kg/ha), in experiment [1] (rate 0.0313 kg/ha) and in experiment [1] (rate 0.0625 kg/ha) was 9.0 in each case. Further, the “Preemergence herbicidal rating GALAP” value in the experiment on GALAP (Galium) (setting [4]) amounted to 0.0; with GALAP (Galium) (setting [5]), 0.0; in the experiment with GALAP (Galium) (setting [6]), 1.0; in the experiment on GALAP (Galium) (setting [7]), 2.0; in the experiment on GALAP (Galium) (setting [8]), 3.0. Moreover, the “Preemergence herbicidal rating GLXMAW” value was 0.0 in experiment [2] (setting [4]); 0.0 in experiment [2] (setting [5]); 0.0 in experiment [2] (setting [6]); 1.0 in experiment [2] (setting [7]); 2.0 in experiment [2] (setting [8]). In addition, the “Herbicidal rating IPOHE” value in experiment [3] (rate 0.0156 kg/ha), in experiment [3] (rate 0.0313 kg/ha) and in experiment [3] (rate 0.0625 kg/ha) was 9.0 throughout.

For `Cn1c(C(F)(F)F)cc(=O)n(-c2cc(N=C3SCC(=O)N3Cc3ccncc3)c(Cl)cc2F)c1=O` [Compound 133, 3-{4-Chloro-2-fluoro-5-{[4-oxo-3-(4-pyridylmethyl)-2-thiazolidinylidene]amino}phenyl}-1-methyl-6-(trifluoromethyl)-2,4(1H,3H)-pyrimidinedione], the “Preemergence herbicidal rating ECHCG” value with ECHCG (Barnyardgrass) (setting [5]), in the experiment on ECHCG (Barnyardgrass) (setting [6]), in the experiment with ECHCG (Barnyardgrass) (setting [7]) and in the experiment with ECHCG (Barnyardgrass) (setting [8]) was 0.0 each time. Further, the “Herbicidal rating CHEAL” value in experiment [1] (rate 0.0156 kg/ha) was determined as 9.0; in experiment [1] (rate 0.0313 kg/ha) it was 6.0; in experiment [1] (rate 0.0625 kg/ha), 9.0. Besides, the “Preemergence herbicidal rating GALAP” value in the experiment with GALAP (Galium) (setting [5]), in the experiment on GALAP (Galium) (setting [6]), in the experiment with GALAP (Galium) (setting [7]) and in the experiment on GALAP (Galium) (setting [8]) was 0.0 each time. In addition, the “Preemergence herbicidal rating GLXMAW” value in experiment [2] (setting [5]), in experiment [2] (setting [6]), in experiment [2] (setting [7]) and in experiment [2] (setting [8]) was 0.0 each time. The “Herbicidal rating IPOHE” value in experiment [3] (rate 0.0156 kg/ha), in experiment [3] (rate 0.0313 kg/ha) and in experiment [3] (rate 0.0625 kg/ha) was 9.0 throughout.
